Measured values as given in patent publication US20190322643A1 (Georgia State University Research Foundation, Inc., priority 2016, published 2019).
Entries after “also recorded” stand apart in the source; their conditions may differ.

Columns and labels:
[1] = molecular target: T1, Mouse histone methyltransferase G9a (969-1263) (Mus musculus, UniProt Q9Z148); assay: MALDI-TOF methylation study of G9a inhibition; assay type: biochemical; settings: inhibitors at 5 μM concentration for 30 min
T1 construct: The 6His-sumo mG9a (969-1263) protein was purified using the following procedure; 6His-sumo (cleaved yes); made in house; host or cells: Escherichia coli BL21 (DE3)
T1 sequence (Q9Z148 969-1263): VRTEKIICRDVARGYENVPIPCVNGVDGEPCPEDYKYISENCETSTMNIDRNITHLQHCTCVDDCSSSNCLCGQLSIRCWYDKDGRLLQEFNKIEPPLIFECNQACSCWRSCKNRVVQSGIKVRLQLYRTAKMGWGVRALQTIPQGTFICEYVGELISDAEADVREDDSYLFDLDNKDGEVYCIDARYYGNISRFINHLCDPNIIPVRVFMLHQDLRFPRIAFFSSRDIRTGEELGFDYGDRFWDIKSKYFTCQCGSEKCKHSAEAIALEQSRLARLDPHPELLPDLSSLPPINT
Protocol: Mouse histone methyltransferase G9a (969-1263) cDNA was amplified from the cDNA of BALB/c mouse thymus, and the fragment was sub-cloned into a vector with a 6His-sumo tag. […] The 6His-sumo mG9a (969-1263) protein was purified using the following procedure: harvested cell pellet was re-suspended in 20 mM Tris (pH 8.0), 500 mM NaCl, 0.1% β-mercaptoethanol, and 1 mM PMSF. Cells were lysed by sonicating for 15 seconds with 6 second intervals for a total time of 15 minutes on an ice bath. […] The 6His-sumo tag was cleaved from the column by adding Ubiquitin-like-specific protease 1 (ULP-1) at 4° C. for 12 hours. Wash buffer was then run through the Ni^+ column again and the elution buffer collected. Subsequently, advanced protein purification was done by HiTrap Q HP sequential Superdex 200 10/300 GL. Elute of every step was analyzed by SDS PAGE, stained by Coomassie brilliant blue (CBB). […] The reaction was incubated at room temperature for 30 min, and stopped by TFA. 1 μL of the sample was mixed with CHCA matrix and m/z peaks were obtained at reflection positive mode. The results of mass spectrum were analyzed using the Bruker flex analysis software and data processing was carried out as described below. MALDI-TOF based experiments were performed according to the protocol developed by Chang et al. (Nat. Struct. Mol. Biol. 2009, 16, 312-317). MALDI spectra were collected using Bruker flex control software and analyzed by flex analysis. After labelling each cluster peaks of H3K9Me0, H3K9Me1 and H3K9Me2 for all of the tested concentrations, area under the cluster (AUC) were extracted by using the same flex analysis software. % abundance of each peak was calculated by following formula: A=% Abundance of (H3K9Me0)=area of H3K9Me0/(area of H3K9Me0+area of H3K9Me1+area of H3K9Me2) B=% Abundance of (H3K9Me1)=area of H3K9Me1/(area of H3K9Me0+area of H3K9Me1+area of H3K9Me2) C=% Abundance of (H3K9Me2)=area of H3K9Me2/(area of H3K9Me0+area of H3K9Me1+area of H3K9Me2). This was repeated for each spectra (3 multiples for each samples). […] Finally % inhibition was found by subtracting % MA(i) from 100. […] A biochemical assay using MALDI-TOF was used to visualize the effects of the synthesized compounds on G9a enzymatic activity. […] Struct. Mol. Biol. 2009, 16, 312-317).

G9a = molecular target: T2, G9a (Homo sapiens, UniProt Q96KQ7); assay: H3K9Me2 cell immunofluorescence in-cell Western (ICW) assay; assay type: cell-based; settings: MDA-MB-231 cell line, 48 h
T2 construct: endogenous in cells; host or cells: MDA-MB-231
T2 sequence (Q96KQ7 1-1210): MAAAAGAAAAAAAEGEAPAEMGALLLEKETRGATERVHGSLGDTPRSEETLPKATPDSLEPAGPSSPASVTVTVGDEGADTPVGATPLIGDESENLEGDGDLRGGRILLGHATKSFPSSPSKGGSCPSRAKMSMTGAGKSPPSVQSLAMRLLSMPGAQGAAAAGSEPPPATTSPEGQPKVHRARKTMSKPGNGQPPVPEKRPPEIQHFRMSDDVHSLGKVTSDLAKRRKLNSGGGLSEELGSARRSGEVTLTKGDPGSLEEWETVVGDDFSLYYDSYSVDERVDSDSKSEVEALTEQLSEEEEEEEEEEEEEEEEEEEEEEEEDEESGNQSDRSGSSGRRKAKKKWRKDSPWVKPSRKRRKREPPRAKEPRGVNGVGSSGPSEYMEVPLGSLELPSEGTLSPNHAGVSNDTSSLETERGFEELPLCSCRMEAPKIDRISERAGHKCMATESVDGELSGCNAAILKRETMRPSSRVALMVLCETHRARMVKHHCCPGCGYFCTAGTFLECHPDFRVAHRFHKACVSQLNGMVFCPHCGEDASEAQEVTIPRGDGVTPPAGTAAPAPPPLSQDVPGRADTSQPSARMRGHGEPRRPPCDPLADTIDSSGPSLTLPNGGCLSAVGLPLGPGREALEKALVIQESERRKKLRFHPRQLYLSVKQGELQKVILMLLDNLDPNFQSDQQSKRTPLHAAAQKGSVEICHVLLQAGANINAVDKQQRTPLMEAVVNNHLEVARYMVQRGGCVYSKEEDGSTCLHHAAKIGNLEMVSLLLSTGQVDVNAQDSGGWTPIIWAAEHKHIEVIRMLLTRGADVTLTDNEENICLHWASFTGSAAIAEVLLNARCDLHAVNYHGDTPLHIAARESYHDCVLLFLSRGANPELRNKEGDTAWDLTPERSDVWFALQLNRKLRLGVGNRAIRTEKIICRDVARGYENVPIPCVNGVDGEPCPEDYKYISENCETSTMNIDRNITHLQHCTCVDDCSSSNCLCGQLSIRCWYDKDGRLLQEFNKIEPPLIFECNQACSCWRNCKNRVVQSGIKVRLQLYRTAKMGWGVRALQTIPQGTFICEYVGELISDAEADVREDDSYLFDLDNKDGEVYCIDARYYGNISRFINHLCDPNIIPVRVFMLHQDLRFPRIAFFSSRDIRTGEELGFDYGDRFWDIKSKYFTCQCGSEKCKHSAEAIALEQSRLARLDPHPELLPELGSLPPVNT
Protocol: After the incubation, the media was removed and 100 μl fixation and permeabilization solution (2% formaldehyde in PBS) for fixation was added for 30 min. And then use 200 μl 0.1% Triton X100 in PBS washing solution to wash (allow wash to shake on a plate shaker for 5 minutes). After five washes, cells were blocked for 1 h with 150 μl blocking buffer to each well (1% BSA in PBS) (allow blocking at RT with moderate shaking on a plate shaker). After 1 h, remove the blocking buffer from the blocking step and add primary antibody in blocking buffer to cover the bottom of each well. […] The plates were read on an Odyssey CLX (LiCor) scanner at both 800 nm (H3K9me2 signal) and 700 nm (cell tag 700 stain signal) channels. IC50s were calculated using GraphPad Prizm statistical package with sigmoidal variable slope dose response curve fit.

A549 = assay: Cytotoxicity / anti-proliferation assay (CCK-8), A549; assay type: cell-based; settings: Homo sapiens, 72 h, CCK-8 kit
Protocol: (§1) Then the cells were exposed to the different inhibitors with various concentrations for 72 h. […] EC50s were calculated using GraphPad Prizm statistical package with sigmoidal variable slope dose response curve fit.
(§2) Cell anti-proliferation assays were performed to determine the toxicity of these inhibitors. […] These compounds were further evaluated against the control cell line HEK293 to test their toxicity with a non-cancerous cell line.

HCT-8 = assay: Cytotoxicity / anti-proliferation assay (CCK-8), HCT-8; assay type: cell-based; settings: Homo sapiens, 72 h, CCK-8 kit
Protocol: as §1, §2

HDAC = assay: Homogeneous cellular HDAC assay, statements in text without one cell line; settings: result in words
Protocol: After 24 h, 9 μl inhibitors with different concentration were added to the HeLa cells and incubation was continued for 3 h under cell culture conditions. After this treatment period, 10 μl of a 2 mM stock solution of the substrate Boc-K(Ac)-AMC was added into the 96 well plates with Hela cells and inhibitors. […] A549 and K562 cell lines used the same method, respectively. IC50s were calculated using GraphPad Prizm statistical package with sigmoidal variable slope dose response curve fit.
Boc-K(Ac)-AMC was used as a cell-permeable HDAC substrate, as after deacetylation it is cleaved by trypsin to release the florescent 7-amino-4-methylcoumarin (AMC).

HEK293 = assay: Toxicity assay (CCK-8) in control non-cancerous cell line; assay type: cell-based
Protocol: A549, MDA-MB-231, HCT-8, MCF-7, and HEK293 cells were seeded at 8000-10000 cells (100 μl) in white 96-well plates and pre-incubate the plate for 24 h under standard cell culture conditions, respectively. Then the cells were exposed to the different inhibitors with various concentrations for 72 h. Finally, 10 μl of CCK-8 kit solution was added to each well and incubated for 3-4 hours under standard cell culture conditions, and the 96 well plates were measured the absorbance at 450 nm using Perkin-Elmer Wallac Victor ^3V 1420 multi label plate reader (Perkin-Elmer, Wellesley, USA). EC50s were calculated using GraphPad Prizm statistical package with sigmoidal variable slope dose response curve fit.
as §2, with “inhibitors. Several cell lines (MDA-MB-231, MCF-7, A549 and HCT-8) were incubated and then treated with varying concentrations of the inhibitors for 72 h, respectively.” for “inhibitors.”

| inhibition at 5 µM [1] [%] | IC50 (G9a) [µM] | SMILES | EC50 (A549) [µM] | EC50 (HCT-8) [µM] | HDAC inhibition activity (HDAC) | toxicity in normal cell line (HEK293) |
| --- | --- | --- | --- | --- | --- | --- |
| 38 ± 4.99 | 87.4 ± 5.44 | COc1cc2nc(NCCNC(=O)CCCCCC(=O)NO)nc(NC3CCN(Cc4ccccc4)CC3)c2cc1OC [Compound 5b, N1-(2-((4-((1-benzylpiperidin-4-yl)amino)-6,7-dimethoxyquinazolin-2-yl)amino)ethyl)-N7-hydroxyheptanediamide] | > 100 | > 100 | much lower than that of 14 |  |
| 62 ± 14.4 | 37.8 ± 2.8 | COc1ccc2c(NC3CCN(Cc4ccccc4)CC3)nc(NCCNC(=O)CCCCCCC(=O)NO)nc2c1 [Compound 13, N1-(2-((4-((1-benzylpiperidin-4-yl)amino)-7-methoxyquinazolin-2-yl)amino)ethyl)-N8-hydroxyoctanediamide] |  | > 100 | significant HDAC inhibition | lower toxicity |
| 69.5 ± 3.43 | 7.14 ± 1.62 | COc1ccc2c(NC3CCN(Cc4ccccc4)CC3)nc(NCCNC(=O)CCCCCC(=O)NO)nc2c1 [Compound 14, N1-(2-((4-((1-benzylpiperidin-4-yl)amino)-7-methoxyquinazolin-2-yl)amino)ethyl)-N7-hydroxyheptanediamide] |  | 73.1 ± 1.21 | significant HDAC inhibition | lower toxicity; also recorded: less toxic compared to 13 |
